The nature of assay [1]: Antagonist activity at human CCR4 expressed in Th2 cells coexpressing CD45RA+ assessed as inhibition of CCL17 induced chemotaxis.
Assay [2] can be described thus: Antagonist activity at human CCR4 expressed in Th2 cells coexpressing CD45RA+ assessed as inhibition of CCL22 induced chemotaxis.
Assay [3] is described as follows: Antagonist activity at CCR4 in human primary Th2 cells by chemotaxis assay.

SMILES strings stand for the structures.

Consider `COc1nccnc1NS(=O)(=O)c1cccc(Cl)c1Cl`, for which the IC50 in assay [1] and in assay [2] was 501 nM throughout.

Take `COc1nc(F)cnc1NS(=O)(=O)c1cccc(Cl)c1Cl`: the IC50 in assay [1] is 316 nM; in assay [2], 158 nM.

As to `COc1nc(Br)cnc1NS(=O)(=O)c1ccc(Cl)s1`, in assay [3], half-maximal inhibition (IC50) required 200 nM.

What is called IC50 is the concentration needed to halve the response being measured.

For the origin of these results see BindingDB's records for doi:10.1021/acsmedchemlett.7b00315 (Astrazeneca, 2017).
